Reference: patent US3978035A, “13-Norleucine-14-desamido motilin, a method for preparing it and an agent containing it” (Max-Planck-Gesellschaft zur Forderung der Wissenschaften …, priority 1973, dated 1976)
Where a SMILES comes first, the peptide text is derived from it. [ ]: non-standard residue; d: D form. Nle = CCCC[C@H](N)C(=O)O

Experiment: biological activity in comparison with natural motilin
Details: after purification on ion exchangers; relative to naturally occurring motilin (method reference: J. C. Brown et al.)

Structure (SMILES)	biological activity in comparison with natural motilin
CCCC[C@H](NC(=O)[C@H](CCCNC(=N)N)NC(=O)[C@H](CCC(N)=O)NC(=O)[C@H](CC(C)C)NC(=O)[C@H](CCC(=O)O)NC(=O)CNC(=O)[C@H](Cc1ccc(O)cc1)NC(=O)[C@@H](NC(=O)[C@H](Cc1ccccc1)NC(=O)[C@@H](NC(=O)[C@@H]1CCCN1C(=O)[C@@H](NC(=O)[C@@H](N)Cc1ccccc1)C(C)C)[C@@H](C)CC)[C@@H](C)O)C(=O)N[C@@H](CCC(=O)O)C(=O)N[C@@H](CCC(=O)O)C(=O)N[C@@H](CCCCN)C(=O)N[C@@H](CCC(=O)O)C(=O)N[C@@H](CCCNC(=N)N)C(=O)N[C@@H](CC(N)=O)C(=O)N[C@@H](CCCCN)C(=O)NCC(=O)N[C@@H](CCC(N)=O)C(=O)O [13-norleucine-14-desamido-motilin] (H-FVPIFTYGELQR[Nle]EEKERNKGQ-OH)	above 90%
CCCC[C@H](NC(=O)[C@H](CCCNC(=N)N)NC(=O)[C@H](CCC(N)=O)NC(=O)[C@H](CC(C)C)NC(=O)[C@H](CCC(=O)O)NC(=O)CNC(=O)[C@H](Cc1ccc(O)cc1)NC(=O)[C@@H](NC(=O)[C@H](Cc1ccccc1)NC(=O)[C@@H](NC(=O)[C@@H]1CCCN1C(=O)[C@@H](NC(=O)[C@@H](N)Cc1ccccc1)C(C)C)[C@@H](C)CC)[C@@H](C)O)C(=O)N[C@@H](CCC(=O)O)C(=O)N[C@@H](CCC(=O)O)C(=O)N[C@@H](CCCCN)C(=O)N[C@@H](CCC(=O)O)C(=O)N[C@@H](CCCNC(=N)N)C(=O)N[C@@H](CC(N)=O)C(=O)N[C@@H](CCCCN)C(=O)NCC(=O)N[C@@H](CCC(N)=O)C(=O)O [C1 -fraction] (H-FVPIFTYGELQR[Nle]EEKERNKGQ-OH)	over 90%
